Several values for one entry are separate records, joined by “and”; a condition that tells them apart may be missing. Equal values may be shown once.
Key:
[1] = system: microtubule assembly; conditions: Bradley et al., Clin. Cancer Res. 2001; cited from earlier work
[2] = system: HPV-11; assay: In vitro antiviral screening (selectivity index), HPV-11; type: cell-based; conditions: human papillomavirus (HPV)
[3] = system: Yellow Fever; type: cell-based
[4] = system: Pichinde; type: cell-based
[5] = system: Punta Toro; type: cell-based
[6] = system: Tacaribe; type: cell-based
[7] = system: SARS; type: cell-based
[8] = system: HCMV; assay: In vitro antiviral screening (selectivity index), HCMV; type: cell-based, herpes cytomegalovirus
[9] = system: Measles; assay: In vitro antiviral screening (selectivity index), Measles (NR assay); type: cell-based, measles virus
[10] = system: Rift Valley Fever; type: cell-based
[11] = system: Dengue; assay: In vitro antiviral screening (selectivity index), Dengue; type: cell-based
[12] = system: VEE; type: cell-based
[13] = system: RV 2; type: cell-based
[14] = system: VZV; assay: In vitro antiviral screening (selectivity index), VZV; type: cell-based, varicella-zoster virus
[15] = system: Flu A; type: cell-based
[16] = system: Vaccinia; type: cell-based
[17] = system: Adeno; type: cell-based
[18] = system: HSV-1; assay: In vitro antiviral screening (selectivity index), HSV-1; type: cell-based, herpes simplex virus type 1
[19] = system: HSV-2; assay: In vitro antiviral screening (selectivity index), HSV-2; type: cell-based, herpes simplex virus type 2
[20] = system: RSV A; assay: In vitro antiviral screening (selectivity index), RSV A; type: cell-based
[21] = system: Flu B; type: cell-based
[22] = system: PIV; type: cell-based
[23] = system: Cowpox; type: cell-based
[24] = system: BK (polyoma); type: cell-based, polyoma (BK) virus
[25] = biological target: cellular DNA polymerase alpha (Homo sapiens, UniProt P09884); conditions: cited from earlier work
[26] = biological target: human immunodeficiency virus-specified reverse transcriptase (Human immunodeficiency virus type 1 group M subtype B, UniProt P04585); conditions: HIV reverse transcriptase; cited from earlier work
[27] = cited from earlier work

Sequence of cellular DNA polymerase alpha (P09884 whole entry): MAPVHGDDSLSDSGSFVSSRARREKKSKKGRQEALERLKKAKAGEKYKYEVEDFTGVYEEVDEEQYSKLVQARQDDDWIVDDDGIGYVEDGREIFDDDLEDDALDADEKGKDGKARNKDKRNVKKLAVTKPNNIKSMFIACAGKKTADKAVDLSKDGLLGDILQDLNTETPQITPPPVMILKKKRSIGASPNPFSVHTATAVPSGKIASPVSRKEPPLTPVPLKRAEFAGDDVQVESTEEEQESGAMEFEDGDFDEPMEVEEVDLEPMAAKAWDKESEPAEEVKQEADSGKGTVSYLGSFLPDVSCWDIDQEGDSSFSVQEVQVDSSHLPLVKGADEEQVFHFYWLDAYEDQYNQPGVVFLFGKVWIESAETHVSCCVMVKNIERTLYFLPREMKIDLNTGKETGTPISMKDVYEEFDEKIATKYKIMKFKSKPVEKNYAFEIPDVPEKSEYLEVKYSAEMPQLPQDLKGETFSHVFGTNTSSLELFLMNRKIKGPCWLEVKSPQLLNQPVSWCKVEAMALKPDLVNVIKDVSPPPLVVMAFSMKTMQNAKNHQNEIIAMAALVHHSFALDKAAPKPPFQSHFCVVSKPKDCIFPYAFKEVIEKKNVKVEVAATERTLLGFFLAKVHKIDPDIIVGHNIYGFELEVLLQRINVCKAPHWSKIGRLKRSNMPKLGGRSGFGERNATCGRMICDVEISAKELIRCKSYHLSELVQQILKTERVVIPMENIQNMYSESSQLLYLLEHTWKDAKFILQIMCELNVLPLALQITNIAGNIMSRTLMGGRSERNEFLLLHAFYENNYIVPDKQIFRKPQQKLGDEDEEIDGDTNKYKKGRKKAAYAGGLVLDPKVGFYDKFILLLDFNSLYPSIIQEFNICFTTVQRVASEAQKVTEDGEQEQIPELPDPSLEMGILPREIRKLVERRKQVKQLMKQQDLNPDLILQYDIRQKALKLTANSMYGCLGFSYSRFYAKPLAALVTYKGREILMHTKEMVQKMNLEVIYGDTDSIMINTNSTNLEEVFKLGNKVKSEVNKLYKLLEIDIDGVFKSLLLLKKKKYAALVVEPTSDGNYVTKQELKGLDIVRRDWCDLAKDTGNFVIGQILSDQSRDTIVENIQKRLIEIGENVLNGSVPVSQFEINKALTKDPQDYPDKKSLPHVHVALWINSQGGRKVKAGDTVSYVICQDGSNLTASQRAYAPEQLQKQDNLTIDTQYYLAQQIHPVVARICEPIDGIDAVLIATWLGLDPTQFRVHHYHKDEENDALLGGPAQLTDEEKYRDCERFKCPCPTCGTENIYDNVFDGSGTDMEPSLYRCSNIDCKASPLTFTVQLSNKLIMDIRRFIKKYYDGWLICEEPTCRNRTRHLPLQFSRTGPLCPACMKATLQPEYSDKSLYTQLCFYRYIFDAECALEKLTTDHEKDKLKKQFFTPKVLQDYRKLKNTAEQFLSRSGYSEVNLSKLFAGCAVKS

Structure (SMILES): CC/C=C\C/C=C\C/C=C\C/C=C\C/C=C\C/C=C/CCC(=O)O[C@@H](C(=O)O[C@H]1C[C@@]2(O)[C@@H](OC(=O)c3ccccc3)C3[C@](C)(C(=O)[C@H](OC(C)=O)C(=C1C)C2(C)C)[C@@H](O)C[C@H]1OC[C@@]31OC(C)=O)[C@@H](NC(=O)c1ccccc1)c1ccccc1 (stereo partly drawn) [DHA-paclitaxel]
- activity as intact conjugate [1]: inactive as intact conjugates

Structure (SMILES): CCCCCCCC/C=C\CCCCCCCC(=O)NC1=NC=NC2C1N=CN2CCOCP(=O)([O-])[O-].[Na+].[Na+] (stereo not drawn) [Formula III, PMEA-oleyl amide]
- antiviral activity / sensitivity of virus [2]: sensitive only to the compound of Formula III
- SI (selectivity index) [3]: 1
- SI (selectivity index) [4]: 1
- SI (selectivity index) [5]: 1
- SI (selectivity index) [6]: 2
- SI (selectivity index) [7]: 1
- SI (selectivity index) [8]: 1
- SI (selectivity index) ([9]; Measles (NR assay)): >20
- antiviral activity / sensitivity of virus ([9]; measles virus, in vitro): sensitive only to the compound of Formula III
- SI (selectivity index) [10]: 1
- SI (selectivity index) [11]: 1
- SI (selectivity index) [12]: 1
- SI (selectivity index) [13]: 1
- antiviral activity / sensitivity of virus [14]: sensitive
- SI (selectivity index) [15]: 1
- SI (selectivity index) [16]: 1 and >2
- SI (selectivity index) [17]: 1
- SI (selectivity index) ([18]; HSV-1 (1), first replicate): >17.8
- SI (selectivity index) ([18]; HSV-1 (2), second replicate): >143
- antiviral activity / sensitivity of virus ([18]; HSV-1, in vitro): sensitive only to the compound of Formula III
- SI (selectivity index) ([19]; HSV-2 (1), first replicate): >8.5
- SI (selectivity index) ([19]; HSV-2 (2), second replicate): 5.7
- antiviral activity / sensitivity of virus ([19]; HSV-2, in vitro): sensitive only to the compound of Formula III
- SI (selectivity index) [20]: 1
- SI (selectivity index) [21]: 1
- SI (selectivity index) [22]: 1
- SI (selectivity index) [23]: 1
- SI (selectivity index) [24]: >213
- antiviral activity / sensitivity of virus [24]: sensitive

Structure (SMILES): Nc1ncnc2c1ncn2CCOCP(=O)(O)OP(=O)(O)OP(=O)(O)O [PMEApp]
- Ki/Km [25]: 0.60
- Ki/Km [26]: 0.01
- intracellular half-life [27]: 16 to 18 h

From patent US20090111774A1, “PMEA LIPID CONJUGATES” (Luitpold Pharmaceuticals, Inc., priority 2007, published 2009)
